Values joined by “and” are separate entries in the source; they are usually repeats but may differ in a detail not shown here. Equal values may be shown once. “Also recorded” adds a separate entry of the source.
Legend:
pVHL30 = biological target: T1, pVHL30 (Homo sapiens, UniProt P40337); test: Western blot of VHL levels in U2OS cells; assay type: cell-based
T1 construct: endogenous in cells; host or cells: U2OS
Experimental: (§1) For single time point treatment experiments, cells were transferred in 6-well plates with 5×10^5 cells per well in 2 ml media in order to achieve 80% confluence the following day. Stock concentrations of compounds were prepared by solubilizing the powder in 100% v/v DMSO to the final desired stock concentration.
(§2) On the day of treatment, all compound samples were prepared as 100-fold concentrated compound solution using DMEM just before treatment. The experiment samples (20 μL) were added to the 6 well plate containing 2 ml of media. The final DMSO concentration was 0.1% v/v. Cells were incubated at 37° C. and 5% CO2 for the desired time before harvesting.
(§3) For time dependent treatment, cells were transferred in 6-well plates with 3×10^5 cells per well in 2 ml media. Samples were prepared as detailed above or the single time point experiments. Treatment was conducted at given time points prior to harvest.
(§4) Cells were lysed in lysis buffer (20 mM Tris pH 8, 150 mM NaCl, 1% Triton x100) and a protease inhibitor cocktail (Roche) per 10 ml buffer. For protein extracts, the dishes were placed on ice. The media was aspirated and the tissue layer washed twice with ice-cold phosphate buffer saline (PBS). Lysis buffer (120 μl) was added and the cells detached from the surface with a cell scraper. After removal of the insoluble fraction by centrifugation, the protein concentration of the supernatant was determined by Pierce™ Coomassie (Bradford) Protein Assay Kit. Protein extracts were fractionated by SDS-PAGE on 4-12% Tris-Acetate NuPage® Novex® (Life Technologies) polyacrylamide gels and transferred to a nitrocellulose membrane using wet transfer. The membrane was then blocked with 5% w/v Bovine serum albumin (BSA) in Tris-buffered saline (TBS) with 0.1% w/v Tween-20. For detecting proteins the following primary antibodies in the given concentrations were used: anti-β-Actin (Cell Signaling Technology, 4970S, 13E5) 1:2000, anti-VHL (Cell Signaling Technology, #68547) 1:1000, anti-Hif-1α (BD Biosciences, 610959, clone 54) 1:1000, anti-hydroxy-HIF-1α (Hyp564) (Cell Signaling Techonology; #3434) 1:1000, anti-PHD2 (Bethyl Laboratories; A300-322A) 1:1000, anti-PHD3 (Bethyl Laboratories; A300-327A) 1:1000, anti-CRBN (Proteintech; 11435-1-AP) 1:1000.
(§5) Following incubation with a horseradish peroxidase-conjugated secondary antibody (Cell Signaling Technology), the signal was developed using enhanced chemiluminescence (ECL) Western Blotting Detection Kit (Amersham) on Amersham Hyperfilm ECL film (Amersham).
Band quantification was performed using ImageJ software and reported as relative amount as ratio of the each protein band relative to the lane's loading control. The values obtained were then normalized to 0.1% DMSO vehicle control.

[1] = biological target: T2, pVHL30 (long isoform of VHL) (Homo sapiens, UniProt P40337); test: Western blot of VHL levels in HeLa cells; assay type: cell-based
T2 construct: endogenous in cells; host or cells: HeLa
Experimental: as §1, §2, §3
Cells were transferred in 6-well plates with 5×10^5 cells per well in 2 ml media in order to achieve 80% confluence the day after. At t=0, MLN4924 was added into the desired wells at 3 μM final concentration and 0.1% v/v of DMSO. DMSO (0.1% v/v final conc.) was added to the remaining wells in order to match identical conc. of vehicle in all wells. At t=3 h, MG 132 was added into the desired wells at 50 μM final conc. and 0.1% v/v of DMSO. DMSO (0.1% v/v final conc.) was added to the remaining wells in order to achieve the same conc. of vehicle in all the wells. […] DMSO (0.1% v/v final conc.) was added to the remaining wells in order to obtain the same conc. of vehicle in all the wells. The total final concentration of DMSO was therefore 0.3% v/v. Plates were incubated for 4 h at 37° C. and 5% CO2 before harvesting.
Cells were transferred in 6-well plates with 5×10^5 cells per well in 2 ml media in order to achieve 80% confluence the day after. […] Plates were incubated for the desired time at 37° C. and 5% CO2 before harvesting.
For this experiments, cells were transferred in 6-well plates with 5×10^5 cells per well in 2 ml media in order to achieve 80% confluence the day after. […] Plates were incubated for the desired time at 37° C. and 5% CO2 before harvesting.
as §4, §5
Band quantification was performed using ImageJ software and reported as relative amount as ratio of the each protein band relative to the lane's loading control. […]

[2] = tested on: HIF-dependent luciferase activity (HeLa-HRE and U2OS-HRE cells); test: HRE-luciferase reporter assay; assay type: cell-based, Human; details: different concentrations and times
Experimental: It was performed essentially as described by Frost et al.^34 Briefly, cells (HeLa and U2OS) stably expressing an HRE-luciferase reporter were treated for the indicated times with compounds. Cells were harvested in passive lysis buffer (Promega) and subjected to three freeze-thaw cycles. The soluble lysate fraction was used for assays, performed according to the manufacturer's instructions (Promega) using a Berthold Lumat LB 9507 Luminometer. Results were normalized for protein concentration, and reported as mean±s.e.m. from three biological replicates.

[3] = biological target: pVHL19 (VCB complex: VHL with Elongin B and Elongin C) (Homo sapiens, UniProt P40337); test: ITC titration against VCB, short VHL isoform; assay type: binding
Experimental: Titrations were performed on an ITC200 micro-calorimeter (GE Healthcare). […] The final DMSO concentration was 0.15% v/v. VBC protein experiments were carried out in a buffer containing 20 mM Bis-tris propane, 150 mM NaCl, 1 mM TCEP, 0.15% v/v DMSO, pH 7.4. The titrations consisted of 19 injections of 2 μL compounds solution (150 μM, in the syringe) at a rate of 2 s/μL at 120 s time intervals into the VCB protein solution (20 μM, in the cell). An initial injection of compound solution (0.4 μL) was made and discarded during data analysis. All experiments were performed at 25° C., whilst stirring the syringe at 600 rpm. The data were fitted to a single binding site model to obtain the stoichiometry n, the dissociation constant Kd and the enthalpy of binding ΔH using the Microcal LLC ITC200 Origin software provided by the manufacturer.

Chain of pVHL19 (VCB complex: VHL with Elongin B and Elongin C) (P40337 54-213): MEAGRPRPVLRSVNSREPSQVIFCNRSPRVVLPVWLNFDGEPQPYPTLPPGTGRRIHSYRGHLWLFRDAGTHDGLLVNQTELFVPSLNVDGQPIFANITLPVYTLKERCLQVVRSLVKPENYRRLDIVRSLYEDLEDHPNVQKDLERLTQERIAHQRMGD
Chain of pVHL19 (VCB complex: VHL with Elongin B and Elongin C) (Q15370 1-104 partner limits assumed): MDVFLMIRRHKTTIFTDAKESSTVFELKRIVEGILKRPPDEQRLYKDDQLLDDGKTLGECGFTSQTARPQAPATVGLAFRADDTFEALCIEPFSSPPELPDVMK
Chain of pVHL19 (VCB complex: VHL with Elongin B and Elongin C) (Q15369 17-112 partner limits assumed): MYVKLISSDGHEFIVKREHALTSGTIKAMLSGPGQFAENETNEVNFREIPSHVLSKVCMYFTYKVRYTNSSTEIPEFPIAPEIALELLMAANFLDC
T1 sequence (P40337 whole entry): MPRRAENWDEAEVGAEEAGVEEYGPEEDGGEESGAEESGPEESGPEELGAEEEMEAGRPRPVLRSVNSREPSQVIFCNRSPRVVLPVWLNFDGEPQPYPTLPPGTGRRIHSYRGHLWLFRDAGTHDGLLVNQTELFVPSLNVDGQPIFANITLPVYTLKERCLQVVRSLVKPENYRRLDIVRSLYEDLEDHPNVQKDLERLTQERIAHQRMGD
T2 sequence (P40337 whole entry, canonical isoform): as the sequence (P40337 whole entry) above

profile of cellular activity (pVHL30; 10 h, 1 nM-100 μM): consistent profile of cellular activity
cellular efficacy at longer time points (pVHL30; time course): retained their efficacy
time of treatment to complete degradation of pVHL30 (pVHL30; time course): 1 h
effective degrading concentrations lower than inhibitory concentrations of VH032 [1]: > 3 orders of magnitude
increase in cellular activity compared to parent inhibitor VH032 [1]: > 1000 fold
DC99, complete depletion of pVHL30 ([1]; 4 h): 10 nM
DC50 ([1]; 24 h, read-out: half-degrading concentration (DC50) of pVHL30): ~100 nM
cellular activity with IOX4 pre-treatment ([1]; IOX4 50 μM 30 min before CM11 1 μM, 4 h): did not impact the cellular activity
degradation of pVHL30 with MG132 pre-treatment ([1]; MG132 50 μM 30 min before CM11 1 μM, 4 h): completely abrogated
degradation of pVHL30 with MLN4924 pre-treatment ([1]; MLN4924 3 μM before CM11 1 μM, 4 h): prevented
pVHL degradation with VH032 pre-treatment (competition) ([1]; VH032 150 μM 30 min before CM11 1 μM, 4 h): blocked pVHL degradation
decrease of pVHL30 level ([1]; time course, after 8 h): essentially to completion
apparent binding enthalpy ΔH ([3]; ITC against VCB): -12.3 kcal/mol
avidity (cooperativity α) compared to VH032 ([3]; ITC against VCB): > 18 fold
entropic term −TΔS ([3]; ITC against VCB): 1.4 kcal/mol
Kd ([3]; ITC, pVHL19): 11 ± 2 nM
ΔG ([3]; ITC, pVHL19): -10.9 ± 0.1 kcal/mol
ΔH ([3]; ITC, pVHL19): -12.3 ± 0.7 kcal/mol
α (cooperativity/avidity) ([3]; ITC, pVHL19): 18
−TΔS ([3]; ITC, pVHL19): 1.4 ± 0.8 kcal/mol
n (stoichiometry) ([3]; ITC, pVHL19, 25° C.): 0.6 and 0.6 ± 0.01
Structure (SMILES): Cc1ncsc1-c1ccc(CNC(=O)[C@@H]2C[C@@H](O)CN2C(=O)[C@@H](NC(=O)COCCOCCOCCOCCOCCOCC(=O)N[C@H](C(=O)N2C[C@H](O)C[C@H]2C(=O)NCc2ccc(-c3scnc3C)cc2)C(C)(C)C)C(C)(C)C)cc1 [CM11, N^1,N^20-bis((S)-1-((2S,4R)-4-hydroxy-2-((4-(4-methylthiazol-5-yl)benzyl)carbamoyl)pyrrolidin-1-yl)-3,3-dimethyl-1-oxobutan-2-yl)-3,6,9,12,15,18-hexaoxaicosanediamide]
depletion/degradation of VHL (pVHL30) ([1]; 1 μM, 10 h): total knockdown; also recorded: complete depletion
HIF-dependent luciferase activity relative to DMSO [2]: no increase in HIF-dependent luciferase activity was detected

Source: US11261179B2, “Small molecules” (University of Dundee, priority 2017, dated 2022)
